In PubChem BioAssay AID248 (DTP/NCI, 2004):
Values joined by “and” are separate entries in the source; they are usually repeats but may differ in a detail not shown here. Equal entries are not always repeated. Inconclusive results and toxic doses are left out. Cut-off read from the data, not from the text of the source: active = T/C of 150% or more; inactive = T/C below 125%.

System: L1210 leukemia ip in BDF1 mice, survival T/C
Test: NCI In Vivo Anticancer Drug Screen. Data for tumor model L1210 Leukemia (intraperitoneal) in B6D2F1 (BDF1) mice
Conditions: endpoint: mean survival time, higher = longer survival
Procedure, shortened: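 Transplanted-tumor mice were given test agent; controls received vehicle only. Survival readings from the two groups were divided (treated over control).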

[1] = dose: 100.0 mg/kg/injection, schedule: Q01DX001 (ip), vehicle: saline
[2] = dose: 200.0 mg/kg/injection, schedule: Q01DX001 (ip), vehicle: saline
[3] = dose: 400.0 mg/kg/injection, schedule: Q01DX001 (ip), vehicle: saline
[4] = dose: 100.0 mg/kg/injection, schedule: Q04DX003 (ip), vehicle: saline
[5] = dose: 100.0 mg/kg/injection, schedule: Q04DX002 (ip), vehicle: Klucel (hydroxypropylcellulose) (HPC)
[6] = dose: 200.0 mg/kg/injection, schedule: Q04DX002 (ip), vehicle: Klucel (hydroxypropylcellulose) (HPC)
[7] = dose: 400.0 mg/kg/injection, schedule: Q04DX002 (ip), vehicle: Klucel (hydroxypropylcellulose) (HPC)
[8] = dose: 100.0 mg/kg/injection, schedule: Q01DX009 (ip), vehicle: saline with Tween-80
[9] = dose: 100.0 mg/kg/injection, schedule: Q04DX003 (ip), vehicle: saline with Tween-80
[10] = dose: 200.0 mg/kg/injection, schedule: Q01DX009 (ip), vehicle: saline with Tween-80
[11] = dose: 200.0 mg/kg/injection, schedule: Q04DX003 (ip), vehicle: saline with Tween-80
[12] = dose: 400.0 mg/kg/injection, schedule: Q01DX009 (ip), vehicle: saline with Tween-80
[13] = dose: 400.0 mg/kg/injection, schedule: Q04DX003 (ip), vehicle: saline with Tween-80
[14] = dose: 200.0 mg/kg/injection, schedule: Q01DX009 (ip), vehicle: saline
[15] = dose: 400.0 mg/kg/injection, schedule: Q01DX009 (ip), vehicle: saline
[16] = dose: 50.0 mg/kg/injection, schedule: Q01DX001 (ip), vehicle: saline
[17] = dose: 25.0 mg/kg/injection, schedule: Q04DX003 (ip), vehicle: saline
[18] = dose: 50.0 mg/kg/injection, schedule: Q04DX003 (ip), vehicle: saline

Measured: T/C

COC1(OC)C2(Cl)C3C4C5(OC(C)=O)C(=O)C3(OC(C)=O)C3C5C(Cl)(C41Cl)C32Cl (configuration not stated)
inactive: [1] 100 % of control | [2] 96 % of control | [3] 96 % of control

CN(C)/C=N/N1CCCCCC1
inactive: [4] 98 % of control

Cc1n[n+]([O-])c(C)cc1[N+](=O)[O-]
inactive: [5] 112 % of control | [6] 101 % of control

O=C(Oc1ccccc1)Oc1ccccc1
inactive: [5] 96 % of control | [6] 96 % of control | [7] 96 % of control

Cc1ccccc1C(c1ccccc1C)c1ccccc1C(=O)O
inactive: [8] 103 % of control | [9] 105 % of control | [10] 100 % of control | [11] 93 % of control | [12] 97 % of control | [13] 98 % of control

CN(C)CCc1ccccc1
inactive: dose: 25.6 mg/kg/injection, schedule: Q04DX002 (ip), vehicle: saline with Tween-80 100 % of control | dose: 64.0 mg/kg/injection, schedule: Q04DX002 (ip), vehicle: saline with Tween-80 103 % of control | [8] 100 % of control | [9] 102 % of control | dose: 160.0 mg/kg/injection, schedule: Q04DX002 (ip), vehicle: saline with Tween-80 103 % of control | [10] 95 % of control | [11] 102 % of control | dose: 400.0 mg/kg/injection, schedule: Q04DX002 (ip), vehicle: saline with Tween-80 100 % of control | [13] 100 % of control

C=CCNc1n[nH]c(=S)s1
inactive: [8] 101 % of control | [10] 95 % of control | [12] 98 % of control

CNC(=O)C1C2C=CC(C2)C1C(=O)NC (configuration not stated)
inactive: [9] 93 % of control and 100 % of control and 87 % of control | [11] 96 % of control and 100 % of control and 106 % of control | [13] 93 % of control and 100 % of control (2×)

COc1ccc(/C=C2\CCC3C(CCCC34OCCO4)C2=O)cc1 (configuration not stated)
inactive: dose: 100.0 mg/kg/injection, schedule: Q01DX009 (ip), vehicle: saline 88 % of control | [4] 101 % of control | [14] 101 % of control | dose: 200.0 mg/kg/injection, schedule: Q04DX003 (ip), vehicle: saline 97 % of control | [15] 104 % of control | dose: 400.0 mg/kg/injection, schedule: Q04DX003 (ip), vehicle: saline 99 % of control

O=C(CCCC(=O)N/N=C/c1cc(Br)cc(Br)c1)N/N=C\c1cc(Br)cc(Br)c1
inactive: [16] 96 % of control | [1] 98 % of control | [2] 96 % of control | [3] 90 % of control

O=[N+]([O-])CC(Nc1ccc(Br)cc1)c1ccccc1 (configuration not stated)
inactive: dose: 67.0 mg/kg/injection, schedule: Q01DX009 (ip), vehicle: saline with Tween-80 95 % of control | [8] 97 % of control | dose: 150.0 mg/kg/injection, schedule: Q01DX009 (ip), vehicle: saline with Tween-80 100 % of control | [10] 91 % of control | [12] 86 % of control

CCSC1OC(C(COC(C)=O)OC(C)=O)C(OC(C)=O)C1SCC (configuration not stated)
inactive: dose: 100.0 mg/kg/injection, schedule: Q04DX003 (ip), vehicle: other 97 % of control | dose: 200.0 mg/kg/injection, schedule: Q04DX003 (ip), vehicle: other 103 % of control | dose: 400.0 mg/kg/injection, schedule: Q04DX003 (ip), vehicle: other 101 % of control

CCOC(=O)CCC(NC(=O)CCCCSc1ncnc2nc[nH]c12)C(=O)OCC (configuration not stated)
inactive: dose: 25.0 mg/kg/injection, schedule: Q01DX009 (ip), vehicle: saline with Tween-80 97 % of control | dose: 25.0 mg/kg/injection, schedule: Q01DX009 (oral), vehicle: saline with Tween-80 90 % of control | dose: 50.0 mg/kg/injection, schedule: Q01DX009 (ip), vehicle: saline with Tween-80 101 % of control | dose: 50.0 mg/kg/injection, schedule: Q01DX009 (oral), vehicle: saline with Tween-80 86 % of control | [8] 106 % of control | dose: 100.0 mg/kg/injection, schedule: Q01DX009 (oral), vehicle: saline with Tween-80 100 % of control | [10] 111 % of control | dose: 200.0 mg/kg/injection, schedule: Q01DX009 (oral), vehicle: saline with Tween-80 88 % of control | [12] 107 % of control | dose: 400.0 mg/kg/injection, schedule: Q01DX009 (oral), vehicle: saline with Tween-80 95 % of control

CC(C)c1cc(C(C)C)c(S(=O)(=O)Cl)c(C(C)C)c1
inactive: [16] 98 % of control | [1] 95 % of control | [2] 95 % of control | [3] 98 % of control

O=C1c2cccc3c([N+](=O)[O-])ccc(c23)C(=O)N1CC1CCCO1 (configuration not stated)
inactive: dose: 100.0 mg/kg/injection, schedule: Q01DX009 (ip), vehicle: Klucel (hydroxypropylcellulose) (HPC) 108 % of control | dose: 200.0 mg/kg/injection, schedule: Q01DX009 (ip), vehicle: Klucel (hydroxypropylcellulose) (HPC) 110 % of control

CC1(C)C[N+](Cc2ccccc2)(Cc2ccccc2)C1
inactive: dose: 0.78 mg/kg/injection, schedule: Q01DX009 (ip), vehicle: saline 100 % of control | dose: 1.56 mg/kg/injection, schedule: Q01DX009 (ip), vehicle: saline 102 % of control | dose: 3.12 mg/kg/injection, schedule: Q01DX009 (ip), vehicle: saline 100 % of control | dose: 6.25 mg/kg/injection, schedule: Q01DX009 (ip), vehicle: saline 103 % of control | dose: 12.5 mg/kg/injection, schedule: Q04DX003 (ip), vehicle: saline 112 % of control | [17] 98 % of control | [18] 97 % of control

CCOC(C(=O)OC1CCN(C)CC1)(c1ccccc1)c1ccccc1
inactive: [17] 97 % of control | [18] 96 % of control | [9] 93 % of control | [4] 97 % of control

Cn1c(N)c(N=O)c(=O)n(C)c1=O
inactive: dose: 9.0 mg/kg/injection, schedule: Q01DX009 (ip), vehicle: saline with Tween-80 103 % of control | dose: 18.0 mg/kg/injection, schedule: Q01DX009 (ip), vehicle: saline with Tween-80 103 % of control | dose: 36.0 mg/kg/injection, schedule: Q01DX009 (ip), vehicle: saline with Tween-80 105 % of control | dose: 72.0 mg/kg/injection, schedule: Q01DX009 (ip), vehicle: saline with Tween-80 97 % of control | dose: 90.0 mg/kg/injection, schedule: Q01DX009 (ip), vehicle: saline with Tween-80 93 % of control | dose: 180.0 mg/kg/injection, schedule: Q01DX009 (ip), vehicle: saline with Tween-80 100 % of control | dose: 360.0 mg/kg/injection, schedule: Q01DX009 (ip), vehicle: saline with Tween-80 98 % of control | dose: 360.0 mg/kg/injection, schedule: Q04DX003 (ip), vehicle: saline with Tween-80 97 % of control | dose: 720.0 mg/kg/injection, schedule: Q04DX003 (ip), vehicle: saline with Tween-80 95 % of control

C[C@]12CC[C@H]3C(=CCc4cc(O)ccc43)[C@@H]1CCC2=O
inactive: dose: 100.0 mg/kg/injection, schedule: Q01DX001 (sc), vehicle: steriod suspending solution 94 % of control | dose: 200.0 mg/kg/injection, schedule: Q01DX001 (sc), vehicle: steriod suspending solution 100 % of control | dose: 400.0 mg/kg/injection, schedule: Q01DX001 (sc), vehicle: steriod suspending solution 91 % of control

C[N+](C)(C)CCS(=O)(=O)c1ccc(Cl)cc1
inactive: dose: 100.0 mg/kg/injection, schedule: Q04DX002 (ip), vehicle: saline 90 % of control

NC(=S)N/N=C1\C=CCCC1
inactive: dose: 50.0 mg/kg/injection, schedule: Q01DX001 (ip), vehicle: carboxymethylcellulose (CMC) 111 % of control

CC1CCC2(C)CCC3(C)C4=CCC5C(C)(C)C(O)CCC5(C)C4CCC3(C)C2C1C (configuration not stated)
inactive: [14] 87 % of control | [15] 96 % of control

COc1cc(C)c(OC)cc1C
inactive: [9] 99 % of control | [11] 99 % of control | [13] 94 % of control

O=C(Nc1cc(Cl)ccc1Cl)OCCCl
inactive: [5] 97 % of control | [6] 102 % of control | [7] 97 % of control
